Source: patent publication US9328099B2, “Cyanomethylpyrazole carboxamides as janus kinase inhibitors” (Merck Sharp & Dohme Corp., priority 2011, dated 2016)

How the values were obtained:
[1] = target: JAK2 (Homo sapiens (Human), UniProt O60674); assay: Jak Biochemical HTRF Assay, JAK2; conditions: HTRF biochemical assay, GST-tagged catalytic domain; top concentration tested […]
From the text: (§1) Jak Biochemical HTRF Assay Protocol
(§2) Subsequent reagent additions employed an Agilent Bravo.

[2] = target: JAK1 (Homo sapiens (Human), UniProt P23458); assay: Jak Biochemical HTRF Assay, JAK1; conditions: HTRF biochemical assay, GST-tagged catalytic domain; top concentration tested […]; read-out: JAK1 IC50
From the text: as §1, §2

JAK2, sequence (O60674 849-1124): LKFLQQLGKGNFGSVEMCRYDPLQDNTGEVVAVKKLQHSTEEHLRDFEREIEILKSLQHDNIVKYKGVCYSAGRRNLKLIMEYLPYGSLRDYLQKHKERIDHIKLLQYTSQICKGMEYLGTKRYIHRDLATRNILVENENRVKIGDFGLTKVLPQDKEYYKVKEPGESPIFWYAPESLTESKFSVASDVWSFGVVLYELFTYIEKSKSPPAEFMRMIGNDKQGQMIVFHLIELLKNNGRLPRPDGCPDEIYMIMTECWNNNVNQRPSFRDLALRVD
JAK1, sequence (P23458 875-1153): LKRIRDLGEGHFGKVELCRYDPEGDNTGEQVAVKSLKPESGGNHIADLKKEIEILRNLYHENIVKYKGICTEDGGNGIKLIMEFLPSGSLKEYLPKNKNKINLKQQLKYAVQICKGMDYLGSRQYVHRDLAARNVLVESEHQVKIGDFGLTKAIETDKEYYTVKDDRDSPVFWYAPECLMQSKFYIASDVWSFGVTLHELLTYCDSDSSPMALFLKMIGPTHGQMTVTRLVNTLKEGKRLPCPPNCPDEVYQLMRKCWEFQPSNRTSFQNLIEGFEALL

| SMILES | IC50 [1] [nM] | IC50 [2] [nM] |
| --- | --- | --- |
| C[C@@H](OC(=O)N1CCC(CC#N)(n2cc(C(N)=O)c(Nc3ccc(F)cc3)n2)CC1)C(F)(F)F [Example 30-14, (R)-1,1,1-trifluoropropan-2-yl 4-(4-carbamoyl-3-(4-fluorophenylamino)-1H-pyrazol-1-yl)-4-(cyanomethyl)piperidine-1-carboxylate] | 30 | 2 |
| CN(C)CC(=O)N1CCC(CC#N)(n2cc(C(N)=O)c(Nc3ccccc3)n2)CC1 [Example 34-5, 1-[4-(cyanomethyl)-1-(N,N-dimethylglycyl)piperidin-4-yl]-3-(phenylamino)-1H-pyrazole-4-carboxamide] | 318 | 13 |
| CC(C)(C)OC(=O)N1CCC(CC#N)(n2cc(C(N)=O)c(Nc3cccc(Cn4ccnc4)c3)n2)CC1 [Example 4-3, tert-butyl 4-(4-carbamoyl-3-{[3-(1H-imidazol-1-ylmethyl)phenyl]amino}-1H-pyrazol-1-yl)-4-(cyanomethyl)piperidine-1-carboxylate] | 11 | 0.6 |
| CC(C)COC(=O)N1CC(CC#N)(n2cc(C(N)=O)c(Nc3ccccc3)n2)C1 [Example 30-51, 2-methylpropyl 3-[4-carbamoyl-3-(phenylamino)-1H-pyrazol-1-yl]-3-(cyanomethyl)azetidine-1-carboxylate] | 298 | 14 |
| N#CCC1(n2cc(C(N)=O)c(Nc3ccnc(F)c3)n2)CCC(NCc2ccc(F)cc2)CC1 (stereo not drawn) [Example 41-12, Cis or trans 1-{1-(cyanomethyl)-4-[(4-fluorobenzyl)amino]cyclohexyl}-3-[(2-fluoropyridin-4-yl)amino]-1H-pyrazole-4-carboxamide] | 9 | 0.2 |
| CC(C)(CO)OC(=O)N1CCC(CC#N)(n2cc(C(N)=O)c(Nc3ccc(F)cc3)n2)CC1 [Example 29, 1-Hydroxy-2-methylpropan-2-yl 4-{4-carbamoyl-3-[(4-fluorophenyl)amino]-1H-pyrazol-1-yl}-4-(cyanomethyl)piperidine-1-carboxylate] | 96 | 2 |
| N#CCC1(n2cc(C(N)=O)c(Nc3ccnc(F)c3)n2)CCC(Nc2ccc(F)cc2F)CC1 (stereo not drawn) [Example 40-33, Cis or trans 1-{1-(cyanomethyl)-4-[(2,4-difluorophenyl)amino]cyclohexyl}-3-[(2-fluoropyridin-4-yl)amino]-1H-pyrazole-4-carboxamide] | 0.8 | 0.03 |
| COc1ccc(S(=O)(=O)N2CCC(CC#N)(n3cc(C(N)=O)c(Nc4ccccc4)n3)CC2)cc1 [Example 37-9, 1-{4-(cyanomethyl)-1-[(4-methoxyphenyl)sulfonyl]piperidin-4-yl}-3-(phenylamino)-1H-pyrazole-4-carboxamide] | 3 | 0.8 |
| CS(=O)(=O)c1ccc(Nc2nn(C3(CC#N)CCN(C(=O)CC#N)CC3)cc2C(N)=O)cc1 [Example 36-2, 1-[1-(cyanoacetyl)-4-(cyanomethyl)piperidin-4-yl]-3-{[4-(methylsulfonyl)phenyl]amino}-1H-pyrazole-4-carboxamide] | 10 | 0.6 |
| COCC(C)OC(=O)N1CCC(CC#N)(n2cc(C(N)=O)c(Nc3ccc(F)cc3)n2)CC1 (stereo not drawn) [Example 30-23, 1-methoxypropan-2-yl 4-{4-carbamoyl-3-[(4-fluorophenyl)amino]-1H-pyrazol-1-yl}-4-(cyanomethyl)piperidine-1-carboxylate] | 40 | 2 |
| N#CCC1(n2cc(C(N)=O)c(Nc3ccnc(F)c3)n2)CCN(Cc2ccc(C#N)cc2)CC1 [Example 22-69, 1-[1-(4-cyanobenzyl)-4-(cyanomethyl)piperidin-4-yl]-3-[(2-fluoropyridin-4-yl)amino]-1H-pyrazole-4-carboxamide] | 9 | 0.2 |
| COC1CN(C2CCC(CC#N)(n3cc(C(N)=O)c(Nc4ccnc(F)c4)n3)CC2)C1 (stereo not drawn) [Example 40-81, Cis or trans 1-[1-(cyanomethyl)-4-(3-methoxyazetidin-1-yl)cyclohexyl]-3-[(2-fluoropyridin-4-yl)amino]-1H-pyrazole-4-carboxamide] | 5 | 0.1 |
| N#CCC1(n2cc(C(N)=O)c(Nc3ccnc(F)c3)n2)CCN(Cc2ncco2)CC1 [Example 22-28, 1-[4-(cyanomethyl)-1-(1,3-oxazol-2-ylmethyl)piperidin-4-yl]-3-[(2-fluoropyridin-4-yl)amino]-1H-pyrazole-4-carboxamide] | 73 | 3 |
| Cc1cccc(C)c1NC(=O)N1CC(CC#N)(n2cc(C(N)=O)c(Nc3ccccc3)n2)C1 [Example 38-31, 1-{3-(cyanomethyl)-1-[(2,6-dimethylphenyl)carbamoyl]azetidin-3-yl}-3-(phenylamino)-1H-pyrazole-4-carboxamide] | 656 | 33 |
| N#CCC1(n2cc(C(N)=O)c(Nc3ccccc3)n2)CN(S(=O)(=O)Cc2ccccc2)C1 [Example 37-20, 1-[1-(benzylsulfonyl)-3-(cyanomethyl)azetidin-3-yl]-3-(phenylamino)-1H-pyrazole-4-carboxamide] | 521 | 105 |
| N#CCC1(n2cc(C(N)=O)c(Nc3ccnc(F)c3)n2)CCC(Nc2ccc(F)cc2)CC1 (stereo not drawn) [Example 40-40, Cis or trans 1-{1-(cyanomethyl)-4-[(4-fluorophenyl)amino]cyclohexyl}-3-[(2-fluoropyridin-4-yl)amino]-1H-pyrazole-4-carboxamide] | 9 | 0.2 |
| N#CCC1(n2cc(C(N)=O)c(Nc3ccc(F)cc3)n2)CCC(Nc2cccc(F)c2)CC1 (stereo not drawn) [Example 40-3, Cis or trans 1-{1-(cyanomethyl)-4-[(3-fluorophenyl)amino]cyclohexyl}-3-[(4-fluorophenyl)amino]-1H-pyrazole-4-carboxamide] | > 1500 | 119 |
| COc1cc(N2CCC(CC#N)(n3cc(C(N)=O)c(Nc4ccc(F)cc4)n3)CC2)ccn1 [Example 3-6, 1-[4-(cyanomethyl)-1-(2-methoxypyridin-4-yl)piperidin-4-yl]-3-[(4-fluorophenyl)amino]-1H-pyrazole-4-carboxamide] | 5 | 0.2 |
| CC(C)(C)OC(=O)N1CCC(CC#N)(n2cc(C(N)=O)c(Nc3ccnc(Cl)c3)n2)CC1 [Example 9-29, tert-butyl 4-{4-carbamoyl-3-[(2-chloropyridin-4-yl)amino]-1H-pyrazol-1-yl}-4-(cyanomethyl)piperidine-1-carboxylate] | 3 | 0.1 |
| C/C=C/C(=O)N1CCC(CC#N)(n2cc(C(N)=O)c(Nc3ccccc3)n2)CC1 [Example 33-2, 1-{1-[(2E)-but-2-enoyl]-4-(cyanomethyl)piperidin-4-yl}-3-(phenylamino)-1H-pyrazole-4-carboxamide] | 64 | 2 |
| CNC(=O)c1ccc(Nc2nn(C3(CC#N)CCN(C(=O)OC(C)(C)C)CC3)cc2C(N)=O)cc1 [Example 9-4, tert-Butyl 4-[4-(aminocarbonyl)-3-({4-[(methylamino)carbonyl]phenyl}amino)-1H-pyrazol-1-yl]-4-(cyanomethyl)piperidine-1-carboxylate] | 2 | 0.1 |
| N#CCC1(n2cc(C(N)=O)c(Nc3ccccc3)n2)CCN(C(=O)C2CC2)CC1 [Example 34-1, 1-[4-(Cyanomethyl)-1-(cyclopropylcarbonyl)piperidin-4-yl]-3-(phenylamino)-1H-pyrazole-4-carboxamide] | 16 | 1 |
| C[C@@H]1C[C@](CC#N)(n2cc(C(N)=O)c(Nc3ccccc3)n2)CCN1C(=O)OC(C)(C)C (racemic) [Example 2-11, tert-butyl (2R,4R and 2S,4S)-4-[4-carbamoyl-3-(phenylamino)-1H-pyrazol-1-yl]-4-(cyanomethyl)-2-methylpiperidine-1-carboxylate] | 614 | 29 |
| N#CCC1(n2cc(C(N)=O)c(Nc3ccc(F)cc3)n2)CCC(N2Cc3ccccc3C2)CC1 (stereo not drawn) [Example 40-90, Cis or trans 1-[1-(cyanomethyl)-4-(1,3-dihydro-2H-isoindol-2-yl)cyclohexyl]-3-[(4-fluorophenyl)amino]-1H-pyrazole-4-carboxamide] | 84 | 9 |
| COCCNC1CCC(CC#N)(n2cc(C(N)=O)c(Nc3ccc(F)cc3)n2)CC1 (stereo not drawn) [Example 40-71, Cis or trans 1-{1-(cyanomethyl)-4-[(2-methoxyethyl)amino]cyclohexyl}-3-[(4-fluorophenyl)amino]-1H-pyrazole-4-carboxamide] | 814 | 24 |
| N#CC[C@]1(n2cc(C(N)=O)c(Nc3ccc(S(=O)(=O)C(F)F)cc3)n2)CC[C@H](N)CC1 [Example 41-2] | > 1500 | 86 |
| N#CCC1(n2cc(C(N)=O)c(Nc3ccccc3)n2)CCN(Cc2ccc(Cl)cc2F)CC1 [Example 21-21, 1-[1-(4-chloro-2-fluorobenzyl)-4-(cyanomethyl)piperidin-4-yl]-3-(phenylamino)-1H-pyrazole-4-carboxamide] | 44 | 3 |
| CC(C)(C)OC(=O)N1CCC(CC#N)(n2cc(C(N)=O)c(Nc3cccc(-c4ccc5ccccc5c4)c3)n2)CC1 [Example 15-9, tert-butyl 4-{4-carbamoyl-3-[(3-naphthalen-2-ylphenyl)amino]-1H-pyrazol-1-yl}-4-(cyanomethyl)piperidine-1-carboxylate] | 1480 | 644 |
| COc1cc(N2CCC(CC#N)(n3cc(C(N)=O)c(Nc4ccc(F)cc4)n3)CC2)ccc1F [Example 3-11, 1-[4-(cyanomethyl)-1-(4-fluoro-3-methoxyphenyl)piperidin-4-yl]-3-[(4-fluorophenyl)amino]-1H-pyrazole-4-carboxamide] | 74 | 4 |
| CC(=O)c1cccc(NC(=O)N2CC(CC#N)(n3cc(C(N)=O)c(Nc4ccccc4)n3)C2)c1 [Example 38-32, 1-{1-[(3-acetylphenyl)carbamoyl]-3-(cyanomethyl)azetidin-3-yl}-3-(phenylamino)-1H-pyrazole-4-carboxamide] | 86 | 4 |
